Experimental data taken from a melting point compilation (Tetko et al.; mined from patent text by program, amines drawn as free bases though some values may be those of a salt).

Row | SMILES | melting point
1 | O=C(Nc1cccc(F)c1)Nc1cnnc(Cl)c1 | 293 to 296 °C
2 | NC(=O)c1nn(-c2c(Cl)cc(C(F)(F)F)cc2Cl)c(N)c1S(=O)(=O)C(F)(F)F | 217 °C
3 | CCN1CCCC1CNC(=O)c1cc(-n2cnnn2)ccc1OC (stereo not drawn) | 171 to 174 °C
4 | Cc1ccc(C(=O)c2cccc3c2CCC3C(N)=O)cc1 (stereo not drawn) | 188 to 191 °C
5 | COc1ccc(C)cc1NC(=O)Nc1ccc(N2CCN(C(=O)Nc3ncccc3C)CC2)cc1 | 209 to 211 °C
6 | COc1ccc(CNc2c([N+](=O)[O-])cc(Br)c3ccccc23)c(OC)c1 | 104 to 105 °C
7 | O=C(O)C1CC(O)CN1C(=O)c1ccc2c(c1)OCCO2 (stereo not drawn) | 142 °C
8 | CCCn1nc(C)c([N+](=O)[O-])c1C(N)=O | 136 to 138 °C
9 | Cc1cc2c(cc1O)C(C)(C)CC1(CC(C)(C)c3cc(OCCCn4nc(CO)cc4C)c(C)cc3O1)O2 (stereo not drawn) | 217 to 219 °C
10 | CCCCNC(=O)NS(=O)(=O)c1c(C(=O)OCC)cnn1-c1ccc2ccccc2n1 | 140 to 142 °C
11 | CCOP(=O)(O)Cc1cccc(C(F)(F)F)c1 | 48 to 51 °C
12 | O=C(Cn1ccnc1)c1cccs1 | 87 to 89 °C
13 | O=C1Cc2cc(OCc3ccc4ccccc4n3)ccc2N1c1ccccc1 | 148 to 149 °C
14 | CC(C)(SCC(N)=O)c1ccc2c(c1)OCO2 | 70 to 71.5 °C
15 | N#Cc1cc(NC(=O)C2CCc3ccccc3C2)ccc1N1CCC(O)CC1 (stereo not drawn) | 163 to 165 °C
16 | O=C(c1ccc(F)c(Cl)c1)c1ccc(F)c(Cl)c1 | 93 °C
17 | NC(=O)c1c(F)cccc1C(F)(F)F | 143 to 144 °C
18 | c1csc(-c2ccc(-c3cccs3)nc2)c1 | 150 °C
19 | Cc1c(Br)sc2cc(C(=O)CBr)ccc12 | 126 to 128 °C
20 | CC1(C)c2ccccc2C(C)(C)C1(CC#N)SN=O | 67 to 69 °C
21 | CC(=O)OCCN(CCOC(C)=O)c1ccc(C=CC=Cc2ccc([N+](=O)[O-])cc2)cc1 | 195 to 198 °C
22 | O=C(O)c1ccc(OC(=O)c2ccc(O)c(C34CC5CC(CC(C5)C3)C4)c2)nc1 | 112 to 113 °C
23 | NC(=O)N1CCC(=O)C(C(c2ccccc2)c2ccccc2)C1 (stereo not drawn) | 88 to 89 °C
24 | O=c1ccc2c(-n3ccnc3)nccc2[nH]1 | 291 to 292 °C
25 | O=CCCCN1C(=O)c2ccccc2C1=O | 70 °C

Row | SMILES | melting point
26 | O=C1CCC(c2ccc(NC(=O)C3CC3)cc2)=NN1 | 272 to 273 °C
27 | CCCCOc1ccc(-c2nc3n(c2-c2ccc(OCCCC)cc2)CCS3)cc1 | 149 to 151 °C
28 | COc1ccc(S(=O)(=O)N(Cc2cccnc2)c2c(C(=O)O)cnc3onc(C)c23)cc1 | 244 to 246 °C
29 | Cn1nc(-c2cccc(-n3ncc4cc(C(C)(C)C)cc(F)c4c3=O)c2CO)cc(Nc2cnc([C@H](O)CO)cn2)c1=O | 218 to 224 °C
30 | Cc1ccccc1NC(=O)Nc1ccc(CN)cc1 | 142 to 143 °C
31 | CC(C)(C)OC(=O)N1CCc2c(n(CCO)c3c(Cl)c(Cl)ccc23)CC1 | 117 to 120 °C
32 | Cc1c(F)c(N2CCC(N)C2)nc2c1c(=O)c(C(=O)O)cn2-c1ccc(F)cc1F (stereo not drawn) | 260 °C
33 | CC1(C)Cc2nc(C3CCCC3)c(C(=O)c3ccc(C(F)(F)F)cc3)c(-c3ccsc3)c2C(O)C1 (stereo not drawn) | 179 to 182 °C
34 | CC(C)(C)OC(=O)Nc1ccc(C#Cc2ccc(OC(F)(F)F)cc2)cc1N | 167 to 169 °C
35 | N#Cc1cnc2c(c1)N(Cc1cc(F)ccc1F)CCN2 | 204 to 206 °C
36 | O=c1c2cnccc2n(-c2cccc(Cl)c2)c2ncccc12 | 222 to 224 °C
37 | CP(=O)(O)CC1CC(Cl)=NO1 (stereo not drawn) | 116 °C
38 | CC1CCCCC1OC(=O)c1ncn2c1C1CCCN1C(=O)c1c(Cl)cccc1-2 (stereo not drawn) | 213 to 215 °C
39 | CC(=O)c1cc(N2CCOCC2)ccc1NC(=O)c1ccccc1OCc1ccccc1 | 144 to 146 °C
40 | CCOC(=O)C1=C(C(OCC)OCC)NC(C)=C(C(=O)OCCO)C1c1cccc([N+](=O)[O-])c1 (stereo not drawn) | 98 to 100 °C
41 | Cc1nc2ccccc2c(=O)n1CCCOS(C)(=O)=O | 148 to 150 °C
42 | CC(=O)C(C#N)c1ccc2c(c1)Cc1cccnc1O2 (stereo not drawn) | 245 to 248 °C
43 | COc1ccc2c(c1)C(=O)N(c1cc3ccn(C)c3cn1)C2 | 205 to 210 °C
44 | C=CC(COC(c1ccccc1)(c1ccccc1)c1ccccc1)OCCCCCCCCCCCCCCCC (stereo not drawn) | 34 °C
45 | O=CN(c1cccc(C(F)(F)F)c1)c1cccc(C(F)(F)F)c1 | 63 to 65 °C
46 | O=C(CBr)c1ccc(OCCO)cc1 | 78 °C
47 | COC1=NC(=O)c2c1cc1ccc3c(c1c2-c1ccc2c(c1)OCO2)OCO3 | 306 to 308 °C
48 | CCCCC(C(=O)N[C@@H](CC(=O)O)c1ccc2c(c1)OCO2)N1C(=O)N(Cc2ccccc2)C(=O)C1(C)C (stereo partly drawn) | 53 to 55 °C
49 | C(=Cc1ccc(N(c2ccccc2)c2ccccc2)cc1)c1ccc(N(c2ccccc2)c2ccccc2)cc1 | 247 to 259 °C
50 | O=C(NC(CS)Cc1ccccc1)NC(CS)Cc1ccccc1 (stereo not drawn) | 136 to 138 °C

Row | SMILES | melting point
51 | COC(=O)[C@H]1[C@@H](NC(=O)OC(C)(C)C)C(=O)N1Cc1ccc(OC)cc1OC (relative stereo) | 134 to 135 °C
52 | CC(CCCCCCC(=O)O)C1CCC2C3CCC4CC(O)CCC4(C)C3CC(O)C12C (stereo not drawn) | 182 to 185 °C
53 | C[C@H](NC(=O)c1c[nH]c2ncc(-c3nn(C)c4cc(Cl)ccc34)nc12)C(C)(C)C#N | 322 to 328 °C
54 | COc1cc(OCc2ccccn2)ccc1/C=C/c1cc(/C=C/c2ccc3c(c2)OCCO3)n[nH]1 | 153 to 155 °C
55 | Cc1cc(S(=O)(=O)N2c3ccccc3-c3ccc(F)cc3C2C)ccc1O (stereo not drawn) | 196 °C
56 | CCCCN1CCn2c1nc(C(=O)NCc1ccc(F)cc1-n1cnc(C)n1)c(OCc1ccccc1)c2=O | 172 to 173 °C
57 | N=c1[nH]c2ccccc2c2nc(-c3ccco3)nn12 | 282 to 285 °C
58 | CNC(=S)C1(c2cccc([N+](=O)[O-])c2)CCCCC1=O (stereo not drawn) | 128 to 132 °C
59 | NC(=O)c1nnn(Cc2ccc(C(=O)c3ccc(Cl)cc3)c(Cl)c2)c1N | 203 to 205 °C
60 | Cc1cc(O)c(S(=O)C(C)(C)C)c(=O)o1 (stereo not drawn) | 119 °C
61 | O=C(O)CN1C(=O)C(=Cc2ccc(OCc3ccc(OC(F)(F)F)cc3)c(OCc3ccccc3)c2)SC1=S | 195 to 199 °C
62 | Cc1nnc(NCCCN2CCN(C)CC2)c2cc3ccccn3c12 | 60 °C
63 | C=CCC1CC(NC(=O)C(F)(F)F)C(OC(=O)c2ccc([N+](=O)[O-])cc2)C(C)O1 (stereo not drawn) | 138 to 139 °C
64 | CCOC(=O)c1cc2cc(-c3ccc(C(C)=O)cc3)ccc2o1 | 105 to 107 °C
65 | CCC(O)(c1ccc(OCc2ccccc2)cc1)c1ccc(Cl)cc1Cl (stereo not drawn) | 56 to 57 °C
66 | COc1ccc(C(=O)Nc2ccccc2)cc1Nc1ccc(F)cc1 | 178 to 180 °C
67 | CN1C(=O)C(=O)N(Cc2ccccc2)CC1(CCOC1CCCCO1)c1ccc(Cl)c(Cl)c1 (stereo not drawn) | 178 °C
68 | Cc1ccc(C(=O)c2ccc(CC#N)n2C)s1 | 118 to 121 °C
69 | Cn1c(C=NNCCO)cnc1[N+](=O)[O-] | 138 to 140 °C
70 | CC1(C)CN(Cc2ccccc2[N+](=O)[O-])C(=O)S1 | 128 to 129 °C
71 | CC1(C)CCCN(C(=O)CN(C(=O)CNC(=O)Nc2cccc(CCO)c2)c2ccccc2)C1 | 175 °C
72 | Cc1cc2c(cc1Cl)C=C(C(=O)O)C(C(F)(F)F)O2 (stereo not drawn) | 208 to 209 °C
73 | COC(=O)c1c(C)c(N=O)c2ccccn12 | 131 to 132 °C
74 | CC(C)(C#N)c1cc(Cn2cncn2)cc(C(C)(C)C#N)c1 | 81 to 82 °C
75 | N#Cc1ccc2c(c1)OCC21C(=O)N(Cc2ccc3c(c2)OCCO3)c2ccccc21 (stereo not drawn) | 181 to 183 °C

Row | SMILES | melting point
76 | CC(C)(C)OC(=O)NCC(NC(=O)OC(C)(C)C)C(=O)NCCNC(=O)OCc1ccccc1 (stereo not drawn) | 152 to 154 °C
77 | Cc1cccc2[nH]c(=O)n(CCCN3CC=C(c4cccc(C(F)(F)F)c4)CC3)c(=O)c12 | 158 to 160 °C
78 | COc1cc(-c2cc(=O)c3c(OC)cc(OC)c(C4=CCN(C)CC4)c3o2)cc(OC)c1OC | 211 to 212 °C
79 | COC(=O)C1=Cc2ccc(OCc3nc(-c4ccccc4)oc3C)cc2CC1 | 130 to 131 °C
80 | O=C1COc2ccc(C3=Nc4cc(Cl)ccc4SC3c3ccccc3)cc2N1 (stereo not drawn) | 234 to 236 °C
81 | COc1ccc2c3c([nH]c2c1)CCC(N(C)C)C3 (stereo not drawn) | 100 to 105 °C
82 | Cc1c(CCNC(=O)OC(C)(C)C)c2cc(S(=O)(=O)c3cc(F)cc(F)c3)ccc2n1C | 182 to 186 °C
83 | CCOC(=O)C(O)(CC(=O)c1ccc(C)c(F)c1)C(=O)OCC | 68.7 to 69 °C
84 | O=C(O)c1cn(-n2cnnc2)c2nc(Cl)c(F)cc2c1=O | 230 °C
85 | CC(=O)Oc1cc(O)c(C=O)c(OC(C)=O)c1 | 103 to 105 °C
86 | COC(=O)C1CCC2C3CC(O)C4(O)CC(O)CCC4(C)C3CCC12C (stereo not drawn) | 266 to 268 °C
87 | COc1ccc(CCN(C)CCCOc2ccc(NC(=O)c3cccc4c(=O)c5ccccc5[nH]c34)cc2)cc1OC | 140 °C
88 | N=C(N)c1c[nH]c2ccc(CCNC(=O)c3ccc(-c4ccnc(OCCN5CCCC5)n4)cc3)cc12 | 104 to 105 °C
89 | COC(=O)c1ccc2c(c1)C(Oc1ccccn1)C(O)C(C)(C)O2 (stereo not drawn) | 202 to 204 °C
90 | CCn1nc2c(N)nc3ccccc3c2c1C | 217 to 218 °C
91 | CC(=O)Nc1nc2c(Oc3cc(-c4ccc5c(c4)OC(C)(C)C5)ncn3)cccc2s1 | 224 to 225 °C
92 | CCOCCOc1c(Cl)c(Sc2ccccc2N)c(OCCOCC)c2c1C(=N)NC2=N | 114 to 116 °C
93 | Cc1ccc2nc(-c3ccc4nc(N)sc4c3)sc2c1 | 250 to 251 °C
94 | Nc1cc(CC(=O)O)cc(C(=O)O)c1 | 214 to 220 °C
95 | CNC(=O)[C@@H](C[C@H](O)[C@H](CC1CCCCC1)NC(=O)[C@H](Cc1cscn1)NC(=O)OC(C)(C)C)C(C)(C)O | 203 to 205 °C
96 | O=C1N(c2ccc(I)cc2)CCCC1(Cl)Cl | 153 to 155 °C
97 | FC(F)(F)c1ccc2nc3c(nc2c1)-c1cccc2cccc-3c12 | 185 to 186 °C
98 | CCOP(=O)(OCC)C(c1cccnc1)C(O)c1ccccc1 (stereo not drawn) | 238 °C
